This is an account of results in PubChem BioAssay (NCI).

Values joined by “and” are separate entries in the source; they are usually repeats but may differ in a detail not shown here. Identical values can stand only once.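 48-hour exposure; five concentrations; linearly interpolated endpoints. GI50 = concentration required for 50% inhibition of growth. TGI is the concentration that stops growth completely.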 Some results are limits rather than exact numbers.

Among the test systems are A549 NSCLC; LOX IMVI melanoma; M14 melanoma; MALME-3M melanoma; NCI-H23 lung; NCI-H460 lung; OVCAR-4 ovarian; SN12C renal; UACC-257 melanoma; OVCAR-3 ovarian.
Common to all, as to test: NCI-60 cell line screen, 48 h

Regarding `O=C(/C=C/c1ccc(O)c(O)c1)N1CCN(c2ccc(Cl)cc2)CC1`, the GI50 in the test on A549 NSCLC is 5.7 µM; with LOX IMVI melanoma, 7.35 µM; in the test with M14 melanoma, 8.98 µM; with MALME-3M melanoma, 11.1 µM; in the test with NCI-H23 lung it was 5.21 µM; in the test with NCI-H460 lung, 4.79 µM. In addition, the figures for the GI50 with OVCAR-4 ovarian, in the test with SN12C renal and in the test with UACC-257 melanoma were 3.48 µM, 4.11 µM and 7.72 µM, respectively. Further, the TGI in the test on A549 NSCLC was 60.2 µM; in the test with LOX IMVI melanoma, 21.6 µM; in the test with M14 melanoma it was 47.1 µM; with MALME-3M melanoma it was 57.5 µM; with NCI-H23 lung it was 32 µM; in the test on NCI-H460 lung it was 21.5 µM. For the same compound, the figures for the TGI in the test on OVCAR-4 ovarian, in the test with SN12C renal and in the test on UACC-257 melanoma were 39.5 µM, 42.2 µM and 50 µM, respectively.
Turning to `CCn1c(-c2nonc2N)nc2ccccc21`, the GI50 in the test on A549 NSCLC, in the test on LOX IMVI melanoma, with M14 melanoma, in the test with MALME-3M melanoma, with NCI-H23 lung and with NCI-H460 lung was over 25 µM each time. Also, the GI50 in the test with OVCAR-3 ovarian, with OVCAR-4 ovarian, in the test with SN12C renal and in the test on UACC-257 melanoma was over 25 µM in each case. Further, the TGI in the test on A549 NSCLC, in the test with LOX IMVI melanoma, in the test with M14 melanoma, with MALME-3M melanoma, in the test on NCI-H23 lung and in the test with NCI-H460 lung was over 25 µM each time. Moreover, the TGI in the test on OVCAR-3 ovarian, in the test on OVCAR-4 ovarian, in the test with SN12C renal and with UACC-257 melanoma was over 25 µM each time.
Regarding `O=C1CCC(c2ccccc2)=NN1c1nc2ccccc2s1`, the TGI with A549 NSCLC is over 100 µM; in the test on LOX IMVI melanoma, over 100 µM; in the test with M14 melanoma it was over 100 µM; in the test with MALME-3M melanoma, 95.6 µM; in the test on NCI-H23 lung, over 84.6 µM; in the test with NCI-H460 lung, over 64.4 µM. In addition, the TGI with OVCAR-3 ovarian is 42.4 µM; in the test with OVCAR-4 ovarian, over 100 µM; in the test on SN12C renal, over 94.1 µM; with UACC-257 melanoma it was over 80.2 µM.
As to `COc1ccc(/C=C/C(=O)c2c(-c3ccccc3)nn(C)c(=O)c2N2CC2C)cc1` (stereo not drawn), the TGI with A549 NSCLC was over 100 µM; in the test with LOX IMVI melanoma it was 34 µM; in the test with M14 melanoma, over 100 µM; in the test on MALME-3M melanoma, over 100 µM; in the test with NCI-H23 lung, 50.7 µM; in the test on NCI-H460 lung, 65.5 µM. Further, the TGI in the test on OVCAR-3 ovarian was 67.7 µM; with OVCAR-4 ovarian it was 84 µM; with SN12C renal, over 100 µM; in the test with UACC-257 melanoma it was over 100 µM.
Regarding `O=P(CN1CCOCC1)(c1ccccc1)c1ccccc1`, the TGI in the test with A549 NSCLC, in the test with LOX IMVI melanoma, with M14 melanoma, in the test with MALME-3M melanoma, with NCI-H23 lung and in the test on NCI-H460 lung was over 100 µM in each case. The TGI in the test with OVCAR-3 ovarian, in the test on OVCAR-4 ovarian, with SN12C renal and in the test with UACC-257 melanoma was over 100 µM throughout.
Consider `O=C1C(Cl)=C(Nc2ccc(S(=O)(=O)c3ccc(NC4=C(Cl)C(=O)c5ccccc5C4=O)cc3)cc2)C(=O)c2ccccc21`, for which the GI50 in the test on A549 NSCLC was 5.71 µM; in the test on LOX IMVI melanoma, 1.49 µM; in the test with M14 melanoma it was 1.82 µM; in the test with MALME-3M melanoma, 2.13 µM; in the test with NCI-H23 lung, 1.81 µM; in the test on NCI-H460 lung it was 2.36 µM. Also, the GI50 in the test on UACC-257 melanoma is 1.92 µM. The TGI with A549 NSCLC was 38.8 µM; in the test with LOX IMVI melanoma, 3.1 µM; with M14 melanoma it was 3.26 µM; in the test with MALME-3M melanoma it was 3.88 µM; in the test on NCI-H23 lung, 3.63 µM; in the test on NCI-H460 lung, 6.53 µM. Moreover, the TGI in the test on UACC-257 melanoma was found to be 3.48 µM.
`CCCCNc1ncnc2c1cnn2-c1ccccc1`: the GI50 in the test on A549 NSCLC is 5.29 µM; with LOX IMVI melanoma it was 3.7 µM; in the test with M14 melanoma it was 1.42 µM; in the test on MALME-3M melanoma, 6.18 µM; in the test with NCI-H23 lung, 3.34 µM; in the test with NCI-H460 lung, 1.61 µM. Further, the GI50 in the test on OVCAR-3 ovarian was 1.46 µM; in the test with OVCAR-4 ovarian, 18.3 µM; with SN12C renal, 6.18 µM; with UACC-257 melanoma it was 11 µM. The TGI in the test on A549 NSCLC is over 92.8 µM; in the test on LOX IMVI melanoma it was over 100 µM; in the test on M14 melanoma it was over 45.8 µM; in the test with MALME-3M melanoma it was over 72.5 µM; in the test on NCI-H23 lung, over 100 µM; with NCI-H460 lung, over 43.1 µM. Further, the TGI was 5.16 µM in the test on OVCAR-3 ovarian, over 100 µM in the test with OVCAR-4 ovarian, over 100 µM in the test on SN12C renal and over 83.8 µM in the test with UACC-257 melanoma.
As to `C/C=C/C=C/c1cc2cc3c(c(O)c2c(=O)[nH]1)C1(CC3)C(O)=c2c(=O)c3c(=O)cc(OC)c(=O)c=3c(=O)c2=C1O` (stereo not drawn), the GI50 in the test with A549 NSCLC was 0.183 µM and 1.4 µM; in the test on LOX IMVI melanoma, 1.27 µM; with M14 melanoma, 0.315 µM and 0.977 µM; in the test with NCI-H460 lung it was 0.192 µM and 0.985 µM; in the test with OVCAR-3 ovarian, 0.2 µM and 1.7 µM; in the test on OVCAR-4 ovarian it was 0.311 µM and 1.08 µM. For the same compound, the TGI in the test on A549 NSCLC is 4.69 µM and 13.6 µM; in the test on LOX IMVI melanoma, 9.5 µM; in the test with M14 melanoma it was 3.24 µM and 9.06 µM; in the test on MALME-3M melanoma, 2.19 µM and 12.9 µM; in the test with NCI-H23 lung, 10.1 µM and 8.27 µM; with NCI-H460 lung it was 15.6 µM and 12 µM. Moreover, the TGI is 1.37 µM and 8.57 µM in the test with OVCAR-3 ovarian; 11.3 µM and 8.37 µM with OVCAR-4 ovarian; 1.87 µM and 6.45 µM in the test on UACC-257 melanoma.
On to `CCOc1ccc(C2=NN(CC)C(=O)C(C3C(=O)N(c4ccccc4)N=C3C)C2)cc1` (stereo not drawn), for which the TGI in the test on A549 NSCLC, with LOX IMVI melanoma, in the test on M14 melanoma, in the test on MALME-3M melanoma, in the test on NCI-H23 lung and in the test with NCI-H460 lung was over 100 µM in each case. In addition, the TGI with OVCAR-3 ovarian, with OVCAR-4 ovarian and in the test on UACC-257 melanoma was over 100 µM each time.
On to `CCc1ccc2c(c1)C(=O)c1c-2n(CCCN)c(=O)c2cc(OC)c(OC)cc12`, for which the GI50 in the test with LOX IMVI melanoma was 1.36 µM; in the test on M14 melanoma it was 1.8 µM; with MALME-3M melanoma it was 0.5 µM; in the test on NCI-H23 lung, 1.81 µM; with NCI-H460 lung, 1.85 µM; with OVCAR-3 ovarian, 1.51 µM. For the same compound, the results for the GI50 in the test on OVCAR-4 ovarian, in the test with SN12C renal and in the test with UACC-257 melanoma were 1.74 µM, 1.73 µM and 19.5 µM, respectively. The TGI with LOX IMVI melanoma worked out at 2.73 µM; in the test with M14 melanoma, 3.37 µM; in the test with MALME-3M melanoma it was 2.1 µM; in the test with NCI-H23 lung, 3.3 µM; in the test with NCI-H460 lung, 3.86 µM; in the test on OVCAR-3 ovarian it was 2.89 µM. The TGI amounted to 3.2 µM in the test with OVCAR-4 ovarian, 3.33 µM with SN12C renal and 43.6 µM in the test on UACC-257 melanoma.
`[Br][Pb]([c]1ccccc1)([c]1ccccc1)[c]1ccccc1`: the GI50 with A549 NSCLC is 0.356 µM; in the test on LOX IMVI melanoma it was 0.132 µM; in the test on M14 melanoma it was 0.195 µM; in the test on MALME-3M melanoma, 0.183 µM; with NCI-H23 lung, 0.174 µM; in the test with NCI-H460 lung it was 0.292 µM. The GI50 is 0.139 µM with OVCAR-3 ovarian, 0.228 µM with SN12C renal and 0.193 µM with UACC-257 melanoma. Besides, the TGI in the test with A549 NSCLC was determined as 1.29 µM; with LOX IMVI melanoma, 0.299 µM; in the test with M14 melanoma, 0.409 µM; in the test on MALME-3M melanoma, 0.39 µM; with NCI-H23 lung, 0.418 µM; with NCI-H460 lung, 0.895 µM. The TGI with OVCAR-3 ovarian turned out to be 0.272 µM; with SN12C renal, 0.677 µM; in the test on UACC-257 melanoma, 0.43 µM.
As to `CCCCCCCCCCCCCCCCCc1nc(Cl)nc(Cl)c1Cl`, the TGI with A549 NSCLC, with LOX IMVI melanoma, in the test with M14 melanoma, with MALME-3M melanoma, with NCI-H23 lung and with NCI-H460 lung was over 100 µM in each case. The TGI in the test with OVCAR-3 ovarian, in the test with OVCAR-4 ovarian and with SN12C renal was over 100 µM throughout.
`Nc1ncn([C@H]2CC(O)[C@@H](CO)S2)c(=O)n1` (stereo partly drawn): the GI50 in the test with A549 NSCLC is 2.79 µM; in the test with LOX IMVI melanoma, 4.48 µM; in the test on M14 melanoma, 2.62 µM; in the test on MALME-3M melanoma, 88.6 µM; with NCI-H23 lung, 5.34 µM; in the test on NCI-H460 lung, 0.685 µM. Moreover, the GI50 was 6.08 µM in the test with OVCAR-3 ovarian, over 100 µM in the test on OVCAR-4 ovarian and 3.6 µM in the test with SN12C renal. Also, the TGI in the test on A549 NSCLC, with LOX IMVI melanoma, in the test on M14 melanoma, with MALME-3M melanoma, in the test on NCI-H23 lung and in the test on NCI-H460 lung was over 100 µM each time. Moreover, the TGI in the test on OVCAR-3 ovarian, in the test on OVCAR-4 ovarian and in the test on SN12C renal was over 100 µM each time.
As for `COc1ccc(/C=C/C(=N\NC(=O)c2ccccc2)c2sc(Nc3ccc([N+](=O)[O-])cc3)nc2C)cc1OC`, the TGI with A549 NSCLC was found to be 28.9 µM; in the test on LOX IMVI melanoma, 15.9 µM; in the test with M14 melanoma, 28.9 µM; with MALME-3M melanoma it was 43.1 µM; in the test with NCI-H460 lung it was 41.2 µM; in the test with OVCAR-3 ovarian it was 61.5 µM. Moreover, the results for the TGI with OVCAR-4 ovarian, in the test with SN12C renal and in the test with UACC-257 melanoma were 36.9 µM, over 100 µM and 28.1 µM, respectively.
